Test results published in ChEMBL document CHEMBL4673309, “Synthesis and anticancer activity of new coumarin-3-carboxylic acid derivatives as potential lactatetransportinhibitors” (Bioorg Med Chem, 2021).
Activity calls are given as the source filed them. No cut-off for these calls is given here.

test system: NCM460; assay: Cytotoxicity against human NCM460 cells harboring low MCT1 expression incubated for 72 hrs by MTT assay; format: cell-based; conditions: ncm460, 72 h

SMILES	Activity
O=C(NCCNC(=O)c1cc2ccc(OCc3ccc([N+](=O)[O-])cc3)cc2oc1=O)c1cc2ccc(OCc3ccc([N+](=O)[O-])cc3)cc2oc1=O	Non-Toxic
CCN(CC)c1ccc2cc(C(=O)NN)c(=O)oc2c1	Non-Toxic
O=C(NCCNC(=O)c1cc2ccc(OCc3cccc(Br)c3)cc2oc1=O)c1cc2ccc(OCc3cccc(Br)c3)cc2oc1=O	Non-Toxic
CCOc1ccc2cc(C(=O)NN)c(=O)oc2c1	Non-Toxic
NNC(=O)c1cc2ccc(OCc3ccc([N+](=O)[O-])cc3)cc2oc1=O	Non-Toxic
CCN(CC)c1ccc2cc(C(=O)NC(C)C)c(=O)oc2c1	Non-Toxic
O=c1c(O)c(-c2ccc(O)c(O)c2)oc2cc(O)cc(O)c12 [QUERCETIN]	Non-Toxic
NNC(=O)c1cc2ccc(OCc3cccc(Br)c3)cc2oc1=O	Non-Toxic
CCN(CC)c1ccc2cc(C(=O)N/N=C(/C)c3cccnc3)c(=O)oc2c1	Non-Toxic
O=C(NCCO)c1cc2ccc(OCc3cccc(Br)c3)cc2oc1=O	Non-Toxic
CCN(CC)c1ccc2cc(C(=O)N/N=C(/C)c3cccs3)c(=O)oc2c1	Non-Toxic
CCN(CC)c1ccc2cc(C(=O)NO)c(=O)oc2c1	Non-Toxic

test system: HCT-116; assay: Induction of apoptosis in human HCT-116 cells assessed as early apoptosis measured after 48 hrs by annexinV-FITC/propidium iodide staining based by flow cytometry (reference value: 3.42 %); format: functional; conditions: not given

SMILES	Activity
CCN(CC)c1ccc2cc(C(=O)NN)c(=O)oc2c1	2.52%
O=c1c(O)c(-c2ccc(O)c(O)c2)oc2cc(O)cc(O)c12 [QUERCETIN]	5.35%

test system: HCT-116; assay: Cytotoxicity against human HCT-116 cells overexpressing MCT-1 assessed as reduction in cell viability measured after 72 hrs by MTT assay; format: functional, cell-based; conditions: HCT-116, 72 h

SMILES	IC50
O=C(NCCNC(=O)c1cc2ccc(OCc3ccc([N+](=O)[O-])cc3)cc2oc1=O)c1cc2ccc(OCc3ccc([N+](=O)[O-])cc3)cc2oc1=O	68.1 µM
CCN(CC)c1ccc2cc(C(=O)NN)c(=O)oc2c1	3.36 µM
O=C(NCCNC(=O)c1cc2ccc(OCc3cccc(Br)c3)cc2oc1=O)c1cc2ccc(OCc3cccc(Br)c3)cc2oc1=O	11.6 µM
CCOc1ccc2cc(C(=O)NN)c(=O)oc2c1	> 100 µM
NNC(=O)c1cc2ccc(OCc3ccc([N+](=O)[O-])cc3)cc2oc1=O	> 100 µM
CCN(CC)c1ccc2cc(C(=O)NC(C)C)c(=O)oc2c1	> 100 µM
O=c1c(O)c(-c2ccc(O)c(O)c2)oc2cc(O)cc(O)c12 [QUERCETIN]	43.9 µM
NNC(=O)c1cc2ccc(OCc3cccc(Br)c3)cc2oc1=O	> 100 µM
CCN(CC)c1ccc2cc(C(=O)N/N=C(/C)c3cccnc3)c(=O)oc2c1	> 100 µM
O=C(NCCO)c1cc2ccc(OCc3cccc(Br)c3)cc2oc1=O	30.8 µM
CCN(CC)c1ccc2cc(C(=O)N/N=C(/C)c3cccs3)c(=O)oc2c1	> 100 µM
CCN(CC)c1ccc2cc(C(=O)NO)c(=O)oc2c1	37.6 µM

test system: HCT-116; assay: Antiproliferative activity against human HCT-116 cells assessed as reduction in cell proliferation at IC50 incubated for 6 days and measured on day 6 by MTS assay; format: functional, cell-based; conditions: time 6.0 day

SMILES	Activity
CCN(CC)c1ccc2cc(C(=O)NN)c(=O)oc2c1	Active
O=c1c(O)c(-c2ccc(O)c(O)c2)oc2cc(O)cc(O)c12 [QUERCETIN]	Active

test system: HeLa; assay: Induction of apoptosis in human HeLa cells assessed as early apoptosis measured after 48 hrs by annexinV-FITC/propidium iodide staining based by flow cytometry (reference value: 2.94 %); format: functional; conditions: not given

SMILES	Activity
CCN(CC)c1ccc2cc(C(=O)NN)c(=O)oc2c1	5.28%
O=c1c(O)c(-c2ccc(O)c(O)c2)oc2cc(O)cc(O)c12 [QUERCETIN]	4.92%

test system: HeLa; assay: Inhibition of lactate uptake in human HeLa cells at low concentration after 24 hrs by colorimetric assay; format: functional, cell-based; conditions: not given

SMILES	inhibition
CCN(CC)c1ccc2cc(C(=O)NN)c(=O)oc2c1	Active

test system: HeLa; assay: Decrease in intracellular glucose level in human HeLa cells at IC50 after 4 hrs by colorimetric assay; format: functional, cell-based; conditions: not given

SMILES	inhibition
O=c1c(O)c(-c2ccc(O)c(O)c2)oc2cc(O)cc(O)c12 [QUERCETIN]	Active

test system: HeLa; assay: Inhibition of lactate uptake in human HeLa cells at high concentration after 24 hrs by colorimetric assay; format: functional, cell-based; conditions: not given

SMILES	inhibition
CCN(CC)c1ccc2cc(C(=O)NN)c(=O)oc2c1	inactive

test system: HeLa; assay: Reduction of lactate production in human HeLa cells at IC50 after 8 hrs by colorimetric assay; format: functional, cell-based; conditions: not given

SMILES	inhibition
CCN(CC)c1ccc2cc(C(=O)NN)c(=O)oc2c1	Active
O=c1c(O)c(-c2ccc(O)c(O)c2)oc2cc(O)cc(O)c12 [QUERCETIN]	Active

test system: HCT-116; assay: Decrease in intracellular glucose level in human HCT-116 cells at IC50 after 4 hrs by colorimetric assay; format: functional, cell-based; conditions: not given

SMILES	inhibition
CCN(CC)c1ccc2cc(C(=O)NN)c(=O)oc2c1	Active

test system: HCT-116; assay: Decrease in glucose consumption in human HCT-116 cells at IC50 after 4 to 24 hrs by glucose oxidase based colorimetric assay; format: functional, cell-based; conditions: time 4-24 hrs

SMILES	inhibition
CCN(CC)c1ccc2cc(C(=O)NN)c(=O)oc2c1	Active
O=c1c(O)c(-c2ccc(O)c(O)c2)oc2cc(O)cc(O)c12 [QUERCETIN]	Active

test system: HeLa; assay: Antiproliferative activity against human HeLa cells assessed as reduction in cell proliferation at IC50 incubated for 6 days and measured on day 6 by MTS assay; format: functional, cell-based; conditions: time 6.0 day

SMILES	Activity
CCN(CC)c1ccc2cc(C(=O)NN)c(=O)oc2c1	Active

test system: HCT-116; assay: Decrease in intracellular glucose level in human HCT-116 cells at IC50 after 24 hrs by colorimetric assay; format: functional, cell-based; conditions: not given

SMILES	inhibition
CCN(CC)c1ccc2cc(C(=O)NN)c(=O)oc2c1	inactive

test system: HeLa; assay: Cytotoxicity against human HeLa cells overexpressing MCT-1 assessed as reduction in cell viability measured after 72 hrs by MTT assay; format: functional, cell-based; conditions: not given

SMILES	IC50
O=C(NCCNC(=O)c1cc2ccc(OCc3ccc([N+](=O)[O-])cc3)cc2oc1=O)c1cc2ccc(OCc3ccc([N+](=O)[O-])cc3)cc2oc1=O	13.9 µM
CCN(CC)c1ccc2cc(C(=O)NN)c(=O)oc2c1	5.48 µM
O=C(NCCNC(=O)c1cc2ccc(OCc3cccc(Br)c3)cc2oc1=O)c1cc2ccc(OCc3cccc(Br)c3)cc2oc1=O	5.52 µM
CCOc1ccc2cc(C(=O)NN)c(=O)oc2c1	38.3 µM
NNC(=O)c1cc2ccc(OCc3ccc([N+](=O)[O-])cc3)cc2oc1=O	> 100 µM
CCN(CC)c1ccc2cc(C(=O)NC(C)C)c(=O)oc2c1	73 µM
O=c1c(O)c(-c2ccc(O)c(O)c2)oc2cc(O)cc(O)c12 [QUERCETIN]	22.5 µM
NNC(=O)c1cc2ccc(OCc3cccc(Br)c3)cc2oc1=O	> 100 µM
CCN(CC)c1ccc2cc(C(=O)N/N=C(/C)c3cccnc3)c(=O)oc2c1	70 µM
O=C(NCCO)c1cc2ccc(OCc3cccc(Br)c3)cc2oc1=O	17.6 µM
CCN(CC)c1ccc2cc(C(=O)N/N=C(/C)c3cccs3)c(=O)oc2c1	> 100 µM
CCN(CC)c1ccc2cc(C(=O)NO)c(=O)oc2c1	35.9 µM

test system: HeLa; assay: Inhibition of lactate transport in human HeLa cells assessed as increase in intracellular lactate level at IC50 measured after 8 to 24 hrs by colorimetric assay; format: functional, cell-based; conditions: time 8-24 hrs

SMILES	inhibition
CCN(CC)c1ccc2cc(C(=O)NN)c(=O)oc2c1	Active
O=c1c(O)c(-c2ccc(O)c(O)c2)oc2cc(O)cc(O)c12 [QUERCETIN]	Active

test system: HCT-116; assay: Induction of apoptosis in human HCT-116 cells assessed as late apoptotic cells measured after 48 hrs by annexinV-FITC/propidium iodide staining based by flow cytometry (reference value: 2.78 %); format: functional; conditions: not given

SMILES	Activity
CCN(CC)c1ccc2cc(C(=O)NN)c(=O)oc2c1	5.94%
O=c1c(O)c(-c2ccc(O)c(O)c2)oc2cc(O)cc(O)c12 [QUERCETIN]	10.3%

test system: HCT-116; assay: Downregulation of MCT1 expression in human HCT-116 cells at 0.01 to 100 uM measured after 48 hrs by Western blot analysis; format: functional, cell-based; conditions: dose 0.01-100 µM

SMILES	inhibition
CCN(CC)c1ccc2cc(C(=O)NN)c(=O)oc2c1	Active

test system: HeLa; assay: Induction of apoptosis in human HeLa cells assessed as late apoptotic cells measured after 48 hrs by annexinV-FITC/propidium iodide staining based by flow cytometry (reference value: 3.85 %); format: functional; conditions: not given

SMILES	Activity
CCN(CC)c1ccc2cc(C(=O)NN)c(=O)oc2c1	6.47%
O=c1c(O)c(-c2ccc(O)c(O)c2)oc2cc(O)cc(O)c12 [QUERCETIN]	14.2%

test system: HeLa; assay: Decrease in glucose consumption in human HeLa cells at IC50 after 12 hrs by glucose oxidase based colorimetric assay; format: functional, cell-based; conditions: not given

SMILES	inhibition
CCN(CC)c1ccc2cc(C(=O)NN)c(=O)oc2c1	Active

test system: HeLa; assay: Decrease in intracellular glucose level in human HeLa cells at IC50 after 24 hrs by colorimetric assay; format: functional, cell-based; conditions: not given

SMILES	inhibition
CCN(CC)c1ccc2cc(C(=O)NN)c(=O)oc2c1	Active

test system: HCT-116; assay: Inhibition of lactate uptake in human HCT-116 cells at 0.01 to 100 uM after 24 hrs by colorimetric assay; format: functional, cell-based; conditions: dose 0.01-100 µM

SMILES	inhibition
CCN(CC)c1ccc2cc(C(=O)NN)c(=O)oc2c1	Active

test system: HeLa; assay: Downregulation of MCT1 expression in human HeLa cells at 0.01 to 100 uM measured after 48 hrs by Western blot analysis; format: functional, cell-based; conditions: dose 0.01-100 µM

SMILES	inhibition
CCN(CC)c1ccc2cc(C(=O)NN)c(=O)oc2c1	Active

test system: HCT-116; assay: Inhibition of lactate transport in human HCT-116 cells assessed as increase in intracellular lactate level at IC50 measured after 8 hrs by colorimetric assay; format: functional, cell-based; conditions: not given

SMILES	inhibition
CCN(CC)c1ccc2cc(C(=O)NN)c(=O)oc2c1	Active

test system: HCT-116; assay: Reduction of lactate production in human HCT-116 cells at IC50 after 4 to 24 hrs by colorimetric assay; format: functional, cell-based; conditions: time 4-24 hrs

SMILES	inhibition
CCN(CC)c1ccc2cc(C(=O)NN)c(=O)oc2c1	Active
O=c1c(O)c(-c2ccc(O)c(O)c2)oc2cc(O)cc(O)c12 [QUERCETIN]	Active
